Source: patent publication US20210284691A1, “CBX8 CHROMDOMAIN INHIBITORS AND THE USES THEREOF” (Purdue Research Foundation, priority 2019, published 2021)
Square brackets hold non-standard residues; d marks the D form. Peptide text beside a SMILES is read from it. * marks the point of attachment. Tyr(3-Cl) = N[C@@H](Cc1ccc(O)c(Cl)c1)C(=O)O; Benzoyl(3,5-Cl2) = O=C(c1cc(Cl)cc(Cl)c1)*; Lys(Et2) = CCN(CC)CCCC[C@H](N)C(=O)O; Gly(cPent) = N[C@H](C(=O)O)C1CCCC1; NH(propargyl) = C#CCN*

How the values were obtained:
[1] = biological target: T1, CBX2 binding to chromatin (Homo sapiens, UniProt Q14781); test: ChIP-qPCR in K562 cells; type: cell-based
T1 construct: endogenous in cells; host or cells: HEK293T (A21); K562 (A22)
Experimental: (§1) FIGS. 11A-11E: Cellular Activity of CBX2 ChD Ligand. FIG. 11A) Relative cytosolic access of SW2_152F conjugated to a chloroalkane (SW2_152F-CA, SEQ ID NO: 28) was evaluated using chloroalkane penetration assay (CAPA). The half maximal cell penetration value (CP50) of SW2_152F-CA was determined for SW2_152F-CA and CBX8 inhibitor SW2_110A-CA. FIG. 11B) Chemoprecipitations from HEK293T nuclear lysates using biotinylated SW2_152F (SW2_152F-B, SEQ ID NO: 29) were analyzed using immunoblot analysis. FIG. 11C) Analysis and quantification of SW2_152F in abrogating bulk binding of endogenous CBX proteins to chromatin in HEK293T cells by Sequential Salt Extraction. FIG. 11D). Chromatin immunoprecipitation (ChIP) from K562 cells using antibodies against IgG, H3K27me3, CBX2 and CBX8 was followed by quantitative PCR of genomic regions near Tm9SF4 (negative locus), TCF21, Fyn-2, and PAX7. Cells were treated with 10 μM SW2_152F for 4 h prior to harvest. FIG. 11E) Chromatin immunoprecipitation (ChIP) in Hs68 fibroblast cells using antibodies against IgG, CBX7, and CBX8 followed by quantitative PCR of genomic regions at LMNB2 (negative locus), CCND2, and RUNX3. Cells were treated with 100 μM SW2_152F for 4 h prior to harvest. For all qPCR, error bars represent SEM n=3 biological replicates, p-values were calculated using two-tailed Student's t-test, * p<0.05, **=p<0.01, ***=p<0.001, ****=p<0.0001.
(§2) ChIP-qPCR. After validating selectivity using lysate and bulk chromatin, we wanted to determine whether the inhibitor can disrupt CBX2 binding to chromatin in live cells. We used chromatin immunoprecipitation (ChIP) followed by quantitative PCR (ChIP-qPCR) of sites with CBX2, CBX8 and H3K27me3 enrichment in K562 ChIP-Seq datasets in ENCODE (M. Azkanaz, et al., Elife 2019). We evaluated effects of compound treatment at both 10 μM and 100 μM SW2_152F. […] In order to evaluate SW2_152F activity against a paralog with no binding to SW2_152F in vitro, CBX7 ChIP-qPCR was performed in Hs68 fibroblast cells, which have no detectable CBX2 expression (H. Pemberton, et al., Genome Biol. 2014).

[2] = biological target: T2, CBX8 binding to chromatin (Homo sapiens, UniProt Q9HC52); test: ChIP-qPCR in K562 cells; type: cell-based
T2 construct: endogenous in cells; host or cells: Hs68 fibroblasts (A16); HEK293T (A19); K562 (A23)
T2 sequence (Q9HC52 1-389): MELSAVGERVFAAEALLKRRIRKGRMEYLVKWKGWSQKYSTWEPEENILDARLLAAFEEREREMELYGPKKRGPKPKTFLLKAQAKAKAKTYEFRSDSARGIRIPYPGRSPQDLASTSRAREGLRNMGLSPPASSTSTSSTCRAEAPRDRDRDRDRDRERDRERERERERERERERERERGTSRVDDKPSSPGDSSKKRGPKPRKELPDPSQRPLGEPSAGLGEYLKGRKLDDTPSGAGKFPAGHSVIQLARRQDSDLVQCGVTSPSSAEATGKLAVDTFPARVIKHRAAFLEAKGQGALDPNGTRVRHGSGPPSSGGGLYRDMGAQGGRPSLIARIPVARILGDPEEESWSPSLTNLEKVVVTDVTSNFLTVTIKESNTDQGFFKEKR
Experimental: as §1, §2

T1 sequence (Q14781 whole entry): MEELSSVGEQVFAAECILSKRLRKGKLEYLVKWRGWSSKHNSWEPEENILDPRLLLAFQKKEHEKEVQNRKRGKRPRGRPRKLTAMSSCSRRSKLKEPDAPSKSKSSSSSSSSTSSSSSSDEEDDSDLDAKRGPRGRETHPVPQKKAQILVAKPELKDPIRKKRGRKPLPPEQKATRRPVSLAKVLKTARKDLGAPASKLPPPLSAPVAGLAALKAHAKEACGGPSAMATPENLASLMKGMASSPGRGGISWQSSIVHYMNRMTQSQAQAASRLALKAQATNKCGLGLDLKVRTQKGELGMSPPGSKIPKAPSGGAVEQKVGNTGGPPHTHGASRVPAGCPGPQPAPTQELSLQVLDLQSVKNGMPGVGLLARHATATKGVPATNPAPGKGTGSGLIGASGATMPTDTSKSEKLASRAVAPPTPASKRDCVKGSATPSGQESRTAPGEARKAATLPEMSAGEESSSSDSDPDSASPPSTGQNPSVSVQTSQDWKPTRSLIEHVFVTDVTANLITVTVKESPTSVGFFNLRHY

CBX2 binding, ChIP-qPCR ([1]; 10 μM, 4 h): significant reduction of CBX2 binding | CBX8 binding, ChIP-qPCR ([2]; 10 μM, 4 h): not CBX8 binding
Compound: C#CCNC(=O)[C@H](CO)NC(=O)[C@H](CCCCN(CC)CC)NC(=O)[C@@H](NC(=O)[C@@H](NC(=O)[C@H](Cc1ccc(O)c(Cl)c1)NC(=O)c1cc(Cl)cc(Cl)c1)C1CCCC1)[C@@H](C)CC [SW2_152F] ({Benzoyl(3,5-Cl2)}-[Tyr(3-Cl)][Gly(cPent)]I[Lys(Et2)]S-{NH(propargyl)})
CBX2 binding, ChIP-qPCR ([1]; 100 μM): significant reduction of both CBX2 and CBX8 binding | CBX8 binding, ChIP-qPCR ([2]; 100 μM): significant reduction of both CBX2 and CBX8 binding
